#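 Exposure lasted 48 hours, with cells grown in 96-well plates and compounds tested at five concentrations. The concentration for 50% growth inhibition is given as GI50.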 The source made the active and inactive calls. Cut-off read from the data, not from the text of the source: active = GI50 up to about 1.1 µM and inactive = higher.
# Legend:
# Test in all cases: NCI anticancer screen, dose series, 48 h
# K562 = test system: K562
# MDA-MB-231 = test system: MDA-MB-231
# M14 = test system: M14
# RXF 393 = test system: RXF 393
# SR = test system: SR
# CAKI-1 = test system: CAKI-1
# NCI/ADR-RES = test system: NCI/ADR-RES
# ACHN = test system: ACHN
# HCT-15 = test system: HCT-15
# SW-620 = test system: SW-620
# RPMI-8226 = test system: RPMI-8226
# KM12 = test system: KM12
# IGROV-1 = test system: IGROV-1
# CCRF-CEM = test system: CCRF-CEM
# HOP-92 = test system: HOP-92
# HL-60 = test system: HL-60
# SF-268 = test system: SF-268
# NCI-H460 = test system: NCI-H460
# OVCAR-8 = test system: OVCAR-8
SMILES,GI50 (K562),GI50 (MDA-MB-231),GI50 (M14),GI50 (RXF 393),GI50 (SR),GI50 (CAKI-1),GI50 (NCI/ADR-RES),GI50 (ACHN),GI50 (HCT-15) [µM],GI50 (SW-620),GI50 (RPMI-8226),GI50 (KM12),GI50 (IGROV-1),GI50 (CCRF-CEM),GI50 (HOP-92),GI50 (HL-60),GI50 (SF-268),GI50 (NCI-H460),GI50 (OVCAR-8)
CCC/C(Cl)=N\OC(=O)Nc1ccc(Br)cc1,1.94 µM (inactive),16.9 µM (inactive),12 µM (inactive),16.6 µM (inactive),5.68 µM (inactive),4.36 µM (inactive),8.99 µM (inactive),5.05 µM (inactive),2.56,2.36 µM (inactive),2.96 µM (inactive),10.8 µM (inactive),12.8 µM (inactive),1.78 µM (inactive),3.33 µM (inactive),1.99 µM (inactive),17.7 µM (inactive),16.5 µM (inactive),14.6 µM (inactive)
O=C1CC(C(O)C(O)C(O)CO)CC(=O)N1 (centres undefined),> 100 µM (inactive),> 100 µM (inactive),> 100 µM (inactive),> 100 µM (inactive),> 100 µM (inactive),> 100 µM (inactive),> 100 µM (inactive),> 100 µM (inactive),> 100,> 100 µM (inactive),> 100 µM (inactive),> 100 µM (inactive),> 100 µM (inactive),> 100 µM (inactive),> 100 µM (inactive),> 100 µM (inactive),> 100 µM (inactive),> 100 µM (inactive),> 100 µM (inactive)
CCOC1SC(SC)=NN1C(=O)C(OC(C)=O)C(OC(C)=O)C(OC(C)=O)C(OC(C)=O)C(=O)N1N=C(SC)SC1OCC (centres undefined),> 100 µM (inactive),> 100 µM (inactive),> 100 µM (inactive),75.2 µM (inactive),> 100 µM (inactive),> 100 µM (inactive),> 100 µM (inactive),> 100 µM (inactive),> 100,> 100 µM (inactive),> 100 µM (inactive),> 100 µM (inactive),> 100 µM (inactive),> 100 µM (inactive),38.2 µM (inactive),> 100 µM (inactive),> 100 µM (inactive),> 100 µM (inactive),> 100 µM (inactive)
CC1=NN(c2ccccc2)C(=O)C1/N=N/c1ccc([As](=O)(O)O)c(O)c1 (centres undefined),> 100 µM (inactive),> 100 µM (inactive),> 100 µM (inactive),> 100 µM (inactive),> 100 µM (inactive),> 100 µM (inactive),> 100 µM (inactive),> 100 µM (inactive),> 100,> 100 µM (inactive),57 µM (inactive),> 100 µM (inactive),> 100 µM (inactive),25.4 µM (inactive),> 100 µM (inactive),87.1 µM (inactive),> 100 µM (inactive),> 100 µM (inactive),> 100 µM (inactive)
CC1=Nn2c(nc3sc4c(c3c2=O)CCCC4)SC1,39.9 µM (inactive),> 50.4 µM (inactive),> 100 µM (inactive),> 75.7 µM (inactive),57 µM (inactive),> 100 µM (inactive),98.6 µM (inactive),> 51.6 µM (inactive),52.6,> 57.8 µM (inactive),69.2 µM (inactive),> 83.9 µM (inactive),> 76.4 µM (inactive),35.3 µM (inactive),36.1 µM (inactive),34.8 µM (inactive),> 58.1 µM (inactive),48.2 µM (inactive),> 100 µM (inactive)
O=C1N/C(=N/N=C/c2ccccc2)N/C1=C\c1cccs1,12.2 µM (inactive),18.6 µM (inactive),29.3 µM (inactive),17.7 µM (inactive),28.2 µM (inactive),16.7 µM (inactive),15.2 µM (inactive),15.9 µM (inactive),17.9,11.7 µM (inactive),16.8 µM (inactive),18.4 µM (inactive),14.5 µM (inactive),13.3 µM (inactive),15.8 µM (inactive),12.3 µM (inactive),9.89 µM (inactive),31.8 µM (inactive),13 µM (inactive)
C[N+]12CCCCC1C(CN1C(=O)Cc3c4ccccc4c(c4ccccc34)CC1=O)CCC2 (centres undefined),> 100 µM (inactive),> 100 µM (inactive),> 100 µM (inactive),> 100 µM (inactive),> 100 µM (inactive),> 100 µM (inactive),> 100 µM (inactive),> 100 µM (inactive),> 100,> 100 µM (inactive),> 100 µM (inactive),> 100 µM (inactive),> 100 µM (inactive),> 100 µM (inactive),> 100 µM (inactive),> 100 µM (inactive),> 100 µM (inactive),> 100 µM (inactive),> 100 µM (inactive)
CC(C)=CCc1c(O)cc2oc(-c3ccc(O)cc3O)cc(=O)c2c1O,8.87 µM (inactive),26.4 µM (inactive),27.9 µM (inactive),26.4 µM (inactive),18.2 µM (inactive),28.5 µM (inactive),33.3 µM (inactive),26.9 µM (inactive),23,28 µM (inactive),17.4 µM (inactive),19.5 µM (inactive),33.5 µM (inactive),8.11 µM (inactive),32.4 µM (inactive),20.1 µM (inactive),38.8 µM (inactive),36.6 µM (inactive),36.7 µM (inactive)
Nc1ncnc2c1ncn2[C@@H]1O[C@H](COP(=O)(O)OP(=O)(O)OC[C@H]2O[C@@H](OCCCO)[C@H](O)[C@@H]2O)[C@@H](O)[C@H]1O,> 100 µM (inactive),> 100 µM (inactive),> 100 µM (inactive),> 100 µM (inactive),44.8 µM (inactive),85.9 µM (inactive),> 100 µM (inactive),> 100 µM (inactive),60,> 100 µM (inactive),> 100 µM (inactive),63.5 µM (inactive),> 100 µM (inactive),> 100 µM (inactive),> 100 µM (inactive),> 100 µM (inactive),> 100 µM (inactive),34.6 µM (inactive),> 100 µM (inactive)
COc1cc2c(cc1OCCCC(=O)Nc1cc(C(=O)Nc3cc(C(=O)NCCCN(C)C)n(C)n3)n(C)n1)N=CC1CCCN1C2=O (centres undefined),14.6 µM (inactive),20 µM (inactive),16 µM (inactive),16.7 µM (inactive),12.9 µM (inactive),16.8 µM (inactive),20 µM (inactive),16.2 µM (inactive),16.1,15.2 µM (inactive),18.5 µM (inactive),34.9 µM (inactive),12.8 µM (inactive),12.5 µM (inactive),19.1 µM (inactive),15.2 µM (inactive),18.3 µM (inactive),14.4 µM (inactive),22 µM (inactive)
O=C1OC(C(O)C(O)C(O)CO)C(O)C1O (centres undefined),> 100 µM (inactive),> 100 µM (inactive),> 100 µM (inactive),> 100 µM (inactive),> 100 µM (inactive),> 100 µM (inactive),> 100 µM (inactive),> 100 µM (inactive),> 100,> 100 µM (inactive),> 100 µM (inactive),> 100 µM (inactive),> 100 µM (inactive),> 100 µM (inactive),> 100 µM (inactive),> 100 µM (inactive),> 100 µM (inactive),> 100 µM (inactive),> 100 µM (inactive)
